Data: patent US20020055130A1, “Method and product for regulating apoptosis” (National Jewish Center for Immunology and Respiratory …, priority 1997, published 2002)

Key:
REF52 cells = experiment: MEKK-induced apoptosis, microinjected REF52 cells; assay type: cell-based
Method: (§1) Cells were prepared for the apoptosis studies as follows. Swiss 3T3 cells and REF52 cells were transfected with an expression plasmid encoding β-Galactoctosidase (β-Gal) detection of injected cells. One set of β-Gal transfected cells were then microinjected with an expression vector encoding MEKK1 370-738 protein. Another set of β-Gal transfected cells were then microinjected with an expression vector encoding truncated BXB-Raf protein.
(§2) A first group of transfected Swiss 3T3 cells and REF52 cells were treated with 50 μM beauvericin for 6 hours at 37° C. Beauvericin is a compound known to induce apoptosis in mammalian cells. A second group of cells were treated with a control buffer lacking beauvericin. The treated cells were then fixed in parafornaldehyde and permeabilized with saponin using protocols standard in the art. The permeabilized cells were then labelled by incubating the cells with a fluorescein-labelled anti-tubulin antibody (1:500; obtained from GIBCO, Gaithersburg, Md.) to detect cytoplasmic shrinkage or 10 μM propidium iodide (obtained from Sigma, St. Louis, Mo.) to stain DNA to detect nuclear condensation. The labelled cells were then viewed by differential fluorescent imaging using a Nikon Diaphot fluorescent microscope. […]

Swiss 3T3 cells = experiment: MEKK-induced apoptosis, microinjected Swiss 3T3 cells; assay type: cell-based
Method: as §1, §2

HEK293 cells = experiment: MEKK1 staining and TdT-mediated dUTP incorporation (DNA fragmentation) in transfected cells; assay type: cell-based, Human; details: after 48 hr
Method: Human embryonal kidney 293 cells (HEK293) stably expressing the EBNA-1 protein from Epstein-Barr virus (Invitrogen) were grown in Dulbecco's modified Eagle's medium (DMEM) supplemented with 100 U/ml penicillin/streptomycin and containing 10% bovine calf serum (BCS). The cells were transfected using lipofectamine (Gibco).
Cells were grown on glass coverslips and transfected using lipofectamine. Two days after transfection, the medium was removed and the cells were fixed in 2% paraformaldehyde, 3% sucrose in phosphate buffered saline (PBS) for 10 min at room temperature. Following three washes with PBS, the cells were permeabilized for 10 min with 2% Triton-X100 in PBS. After three PBS washes, the cells were blocked with filtered cultured medium for 15 min. The coverslips were then incubated 1 hour in TdT reaction mix (200 mM potassium cacodylate, 25 mM Tris.HCl, pH 6.6, 250 μg/ml BSA, 5 mM CoCl2, 0.25 U/μl TdT [Boehringer], 10 μM biotin-dUTP [Boehringer]) at 37° C. in a humidifed atmosphere. […] Images were taken using a Leica DMRXA microscope and analyzed with the SlideBook v2.0 software (Intelligent Imaging Innovations, Denver). […]

p38 kinase = p38 kinase activation, transfected HEK293 cells; assay type: cell-based, Human; details: transfection in HEK293 cells
L929 fibroblasts = experiment: TNF and MEKK1COOH synergy, percentage of apoptotic cells (Lac Switch clones); assay type: cell-based, murine; details: control L929 cells (4.1 LAC1), presence and absence of IPTG
Excerpt: Approximately 20% of control L929 cells became apoptotic upon TNF exposure either in the presence and absence of IPTG. In L929 cells expressing the MEKK1COOH domain, exposure to TNF and IPTG increased the percentage of apoptotic cells to 40%, approximately a 2-fold increase.

L929 cells = experiment: TNFα-mediated apoptosis of L929 cells (neutral red assay, propidium iodide staining); assay type: cell-based, murine
Method: Cell lines and culture. L929 cells (ATCC CCL1 were maintained in Dulbecco's modified Eagle's medium with 5% newborn claf serum and 5% bovine calf serum (BCS) supplemented with 100 ug/ml streptomycin and 100U/ml penicillin. The cells were grown in 10 cm dishes at 37° C. in 7.5% CO2. Cells were made quiescent where indicated by incubation in Dulbecco's modified Eagle's medium and 0.1% bovine serum albumin for 24 h. Recombinant murine TNFα and recombinant humanbFGF (147aa) were from R&D Systems, Minneapolis, Minn. Cells were pretreated where indicated with the MEK-1 inhibitor PD#098059 (Parke-Davis Pharmaceutical Corp. Ann Arbor, Mich.) for 1 h at 37° C. Cells were stimulated by incubation with the indicated cytokine or growth factor for various times at 37° C. […] Stimulation was stopped by rinsing the plates twice with ice cold phosphate buffered saline (PBS) and lysing the cells in the appropriate lysis buffer. Cells were scraped from the plates and nuclei were pelleted for 10 min at 14,000 RPM in a microcentrifuge.
Neutral Red Assay Uptake of the dye neutral red was used as one measure of cell viability following cytokine or growth factor treatment (Finter, N. B. (1969) J. Gen Virol. 5:419-427). 1.5×10^4-2.5×10^5 L929 cells/well were plated in 12 well tissue culture dishes in 1.25 ml of media. Cells were treated for 15-20 hr with various concentrations of TNFα and/or bFGF. 2.5 μl of 1% neutral red was added to the wells and incubated for 2 hr at 37° C. PBS. The neutral red was extracted with 1.0 ml of 50% ethanol, 50 mM Na-citrate pH 4.2 and absorbency was measured at […].
Propidium iodide staining Cells were plated on glass chamber slides (Nunc, Naperville, Ill.) at a concentration of 0.2-0.6×10^5 cells/ml. Ras expression was induced with 5 mM IPTG in Dulbecco's modified Eagle's medium with 0.1% BCS for 8-12 hr. Cells were exposed to TNFα (5 ng/ml) and/or bFGF (500 pg/ml) in Dulbecco's modified Eagle's medium with 0.1% BCS for 16 hr. The parental LACI expressing cell line (see below) was used as a control. Cells were washed twice in PBS, fixed in acetone:methanol (1:1) −20° C. for 5 min, air dried, washed twice in PBS, stained with 1 μg/ml propidium iodide (PI) in PBS for 20 min, washed in PBS, washed in H2O and mounted in 25% glycerol/PBS. PI fluorescence was observed using a Nikon inverted microscope equipped with epifluorescence and a […] filter. Images were analyzed using IP lab.

JNK = JNK assay (solid state kinase assay with GST-Jun), L929 cells; assay type: cell-based, murine
Method: JNK assay. JNK activity was measured using a solid state kinase assay in which glutathione S-transferase-c-Jun(1-79) (GST-JUN) cound to glutathione-Sepharose 4B beads was used to affinity pruify JNK and then JNK activity was measured in an in vitro kinase assay using the sepharose bound GST-Jun as a substrate (Hibi, M., et al. (1993) Genes & Development 7:2135-2148). Stimulated or unstimulated cells were lysed in 0.5% Nonidet P-40, 20 mM HEPES pH 7.2, 100 mM NaCl, 2 mM dithiothreitol, lmM EDTA, 1.0 mM phenylmethylsulfonylfluoride, 1 μg/ml aprotinin and the nuclei pelleted. Lysates were normalized for protein content. […] Binding to GST-Jun efficiently isolates the two major forms of JNK (p45and p55) and under the conditions used JNK isolation was linear for 10-250 μg of cell lysate. The lysates were rotated at 4° C. for 1-3 h. Beads were washed twice in lysis buffer and then twice in PAN (10 mM PIPES, pH 7.0, 100 mM NaCl, 21 μg/ml aprotinin). Kinase reactions were carried out at 30° C. for 15 min in 20 mM Hepes pH 7.2, 20 mM β-glycerophosphate, 10 mMp-nitrophenyl phosphate, 10 mM MgCl2, 1 mM dithiothreitol, 50 μm sodium vanadate, 10 μCi γ^32P-ATP 4300 Ci/mmole. The kinase reaction was linear from 0-30 min.

p42/p44 MAPK = experiment: MAPK assay (EGFR662-681 peptide), L929 cells; assay type: cell-based, murine
Method: MAPK Assay MAPK activity was measured exactly as described previously (Gardner, A. M., et al. (1994) Meth. Enzymol. 238:258-270) with the exception that MonoQ FPLC fractionation was replaced by step elution from a DEAE-Sephacel column using 0.5 M NaCl in loading buffer. The eluate was assayed in triplicate using the epidermal growth factor receptor 662-681 peptide (EGFR662-681) as a selective substrate for MAPK activity (Heasley, L. E., et al. (1994) American Journal of Physiology (Renal Fluid Electrolyte Physiol. 36) 267:F366-F373).

B-Raf = experiment: Raf activation assay (kinase-inactive MEK-1 phosphorylation), L929 cells; assay type: cell-based, murine
Method: (§3) RafActivation Assay Cells were serum starved and challenged in the presence or absence of the appropriate cytokine or growth factors, as described above. Cells were lysed by scraping in ice cold RIPA buffer (50 mM Tris-HCl, pH 7.2, 150 mM NaCl, 0.1% SDS, 0.5% sodium deoxycholate, 1.0% Triton X-100, 10 mM sodium pyrophosphate, 25 mM β-glycerophosphate, 2 mM sodium vanadate, 2.1 µg/ml aprotinin) and the nuclei were pelletted. The supernatants were normalized for protein content and precleared with protein A Sepharose prior to immunoprecipitation with rabbit antiserum to the C terminus of C-Raf, rabbit anti-serum to A-Raf or rabbit antiserum to B-Raf (Santa Cruz Biotech., Santa Cruz, Calif.) and protein A Sepharose for 2-3 hr at 4° C. The beads were washed twice with ice cold RIPA and twice with PAN. A third of the immunoprecipitate was diluted with SDS sample buffer and used for immunoblot analysis. […] Wild-type recombinant MEK-1 was autophosphorylated in parallel as a marker. Reactions were terminated by the addition of 12.5 μl 5× SDS sample buffer, boiled, and subjected to SDS-PAGE and autoradiography.

C-Raf = experiment: as above; assay type: cell-based, murine
Method: as §3

## MEKK1 protein: MEKK1 370-738 protein expressed from a microinjected expression vector
REF52 cells
  apoptotic morphology of expressing cells: underwent cytoplasmic shrinkage and nuclear condensation leading to apoptotic death
Swiss 3T3 cells
  apoptotic morphology of expressing cells: underwent cytoplasmic shrinkage and nuclear condensation leading to apoptotic death

## MEKK1: full length 196 kDa mouse MEKK1, HA-tagged, expressed by transfection
HEK293 cells
  MEKK1-expressing cells apoptotic: about 30%
p38 kinase
  p38 kinase activation: did not activate the p38 kinase

## TNFα
L929 fibroblasts
  percentage of apoptotic cells: Approximately 20%
L929 cells; 1 ng/ml
  time required to induce a similar level of L929 cell death: 24 to 48 h
L929 cells; 10 ng/ml, 15 hr
  L929 cells being apoptotic: greater than 40%
JNK
  concentration giving maximal JNK activation: 1 ng/mL
  time of peak JNK activity: 10 to 15 min
JNK; 0.1 ng/ml
  JNK activation: greater than four-fold
p42/p44 MAPK
  concentration required to stimulate p42/p44 MAPK 2-3 fold: Greater than 10 ng/ml
  time to maximal stimulation of p42/p44 MAPK activity: 5 to 10 min
p42/p44 MAPK; 1 ng/ml
  MAPK activity stimulated above basal: 20%
p42/p44 MAPK; L929 cells
  effect on bFGF stimulation of MAPK activity: little or no effect on bFGF stimulation of MAPK activity
p42/p44 MAPK; L929 cells, TNFα 1 ng/ml where stated
  MAPK activity: only modest stimulatory effects
B-Raf
  B-Raf activation: does not significantly activate
C-Raf
  C-Raf activation: does not significantly activate
